This note sets out measurements from PubChem BioAssay (NCI).

Test systems include RPMI-8226 leukemia; NCI-H226 lung; MALME-3M melanoma; HCT-116 colon; KM12 colon; RXF 393 renal; UACC-62 melanoma; SK-MEL-5 melanoma; CCRF-CEM leukemia.
Common to all, as to test: DTP human tumour cell line panel, 48 h

Each structure is given as a SMILES string. “And” between values parts separate entries of the source, which are not always exact repeats. Equal entries are not always repeated.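 Dose response: 5 concentrations. Exposure: 48 h. Format: 96-well plates. Endpoint: linear interpolation; highest concentration if not reached. At the GI50, growth is halved. TGI denotes the concentration required for complete inhibition of growth.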

Broadly, the TGI is the concentration at which net growth stops. Lower therefore signals more potent growth arrest. As to `CC1=C(C(=O)Nc2ccccc2C)C(c2ccccc2C)C(C(=O)Nc2ccccc2C)=C(C)N1`, the TGI in the assay with RPMI-8226 leukemia is 81.3 µM; in the assay with NCI-H226 lung, 46.9 µM; with MALME-3M melanoma it was 38.2 µM; with HCT-116 colon it was 50.4 µM; with KM12 colon it was 37.8 µM; in the assay with RXF 393 renal it was 26.2 µM.
For `O=C(O)C1CC2CC(=O)C1C2` (stereo not drawn), the TGI with RPMI-8226 leukemia, in the assay on NCI-H226 lung, in the assay with MALME-3M melanoma, in the assay with UACC-62 melanoma, in the assay on HCT-116 colon and in the assay on KM12 colon was more than 100 µM in each case. Besides, the TGI with SK-MEL-5 melanoma, in the assay with CCRF-CEM leukemia and with RXF 393 renal was more than 100 µM throughout.
As for `O=c1[nH]c2c(c3ccccc13)CCc1ccccc1-2`, the TGI in the assay on RPMI-8226 leukemia, with NCI-H226 lung, with MALME-3M melanoma, in the assay with HCT-116 colon, with KM12 colon and with SK-MEL-5 melanoma was more than 100 µM throughout. Moreover, the total growth inhibition concentration (TGI) with RXF 393 renal was more than 100 µM.
For the molecule `Cc1ccc(Nc2nc(C)c(C(/C=C/c3ccc4c(c3)OCO4)=N/Nc3ccc([N+](=O)[O-])cc3[N+](=O)[O-])s2)c([N+](=O)[O-])c1`, the TGI with NCI-H226 lung was 90.1 µM; with MALME-3M melanoma, more than 100 µM; in the assay on UACC-62 melanoma it was 17.8 µM; with HCT-116 colon it was more than 100 µM; in the assay with KM12 colon, more than 100 µM; in the assay on CCRF-CEM leukemia it was more than 100 µM. This molecule gave a TGI with RXF 393 renal of more than 100 µM.
Turning to `CC1CC(=O)c2c(ccc3c2C(=O)c2cccc(O)c2C3=O)C1` (stereo not drawn), the TGI with RPMI-8226 leukemia was 39.1 µM; with NCI-H226 lung it was 34.3 µM; with MALME-3M melanoma it was 19.8 µM; in the assay on UACC-62 melanoma, 22.4 µM; in the assay on HCT-116 colon, 20.1 µM; in the assay on KM12 colon, 26.7 µM. The TGI with SK-MEL-5 melanoma stood at 8.48 µM; in the assay on CCRF-CEM leukemia, 7.97 µM.
Take `Cc1cccc(N=C2NC(=O)C(CC(=O)Nc3ccccc3Cl)S2)c1` (stereo not drawn): the TGI with RPMI-8226 leukemia, in the assay on NCI-H226 lung, with MALME-3M melanoma, in the assay on UACC-62 melanoma, in the assay with HCT-116 colon and with SK-MEL-5 melanoma was more than 100 µM in each case. The TGI with CCRF-CEM leukemia and with RXF 393 renal was more than 100 µM in each case.
Consider `NC(=O)N/N=C(\CCC(=O)N(Cc1ccccc1)Cc1ccccc1)CC(=O)c1ccc(F)cc1`, for which the concentration for total growth inhibition (TGI) with NCI-H226 lung, in the assay with MALME-3M melanoma, in the assay on UACC-62 melanoma, with HCT-116 colon, in the assay with KM12 colon and in the assay with SK-MEL-5 melanoma was more than 100 µM in each case. For the same molecule, the TGI in the assay with CCRF-CEM leukemia and in the assay on RXF 393 renal was more than 100 µM throughout.
As a reminder, the GI50 is the concentration giving 50% growth inhibition. `O=C1C=C(OCCCl)C(=O)c2c(O)ccc(O)c21`: the GI50 in the assay with RPMI-8226 leukemia was 1.38 µM; in the assay on MALME-3M melanoma, 0.215 µM; in the assay on UACC-62 melanoma it was 0.386 µM; in the assay on HCT-116 colon it was 1.33 µM; in the assay with KM12 colon, 6.4 µM; in the assay with CCRF-CEM leukemia it was 1.32 µM. The TGI with RPMI-8226 leukemia was 6.78 µM and 4.08 µM; in the assay with NCI-H226 lung, 5.07 µM and 4.64 µM; with MALME-3M melanoma, 0.34 µM and 0.911 µM; with UACC-62 melanoma, 0.519 µM and 1.61 µM; in the assay with HCT-116 colon, 1.33 µM and 3.2 µM; in the assay with KM12 colon it was 4.38 µM and 20.6 µM. Also, the TGI in the assay on SK-MEL-5 melanoma is 0.321 µM and 0.299 µM; with CCRF-CEM leukemia it was 3.5 µM; with RXF 393 renal, 3.38 µM and 3.96 µM.
As to `COc1ccc(/C=N\O[Si](C)(C)C(C)(C)C)cc1O[Si](C)(C)C(C)(C)C`, the TGI stood at 39 µM in the assay on RPMI-8226 leukemia; 37.4 µM with MALME-3M melanoma; 40.2 µM with UACC-62 melanoma; 29.1 µM in the assay with HCT-116 colon; 32.7 µM in the assay on KM12 colon; 33.9 µM in the assay on SK-MEL-5 melanoma. For the same molecule, the TGI with CCRF-CEM leukemia worked out at 48 µM; with RXF 393 renal, 28.4 µM.
On to `NNC(=S)N/N=C(/C(=O)Nc1ccc([N+](=O)[O-])cc1)c1nc2ccc([N+](=O)[O-])cc2[nH]c1=O`, for which the TGI in the assay on RPMI-8226 leukemia, with NCI-H226 lung, in the assay with MALME-3M melanoma, in the assay with UACC-62 melanoma, in the assay with HCT-116 colon and in the assay on KM12 colon was more than 100 µM each time. Moreover, the TGI in the assay with SK-MEL-5 melanoma and in the assay with CCRF-CEM leukemia was more than 100 µM each time.
On to `O=C(CC(=O)c1ccccc1)C(=O)NC12CC3CC(CC(C3)C1)C2`, for which the TGI in the assay with RPMI-8226 leukemia was more than 66 µM; in the assay with NCI-H226 lung it was more than 100 µM; in the assay on MALME-3M melanoma, more than 100 µM; in the assay on UACC-62 melanoma, more than 100 µM; in the assay with HCT-116 colon, more than 100 µM; in the assay on KM12 colon it was more than 100 µM. Also, the TGI in the assay on SK-MEL-5 melanoma was more than 100 µM; in the assay with CCRF-CEM leukemia it was more than 80.4 µM; in the assay on RXF 393 renal, more than 47.3 µM.
For `O=C(CC(=O)C1CCOC1=O)C(=O)Nc1ccc(Cl)cc1` (stereo not drawn), the TGI in the assay with RPMI-8226 leukemia, with NCI-H226 lung, with MALME-3M melanoma, with UACC-62 melanoma, with HCT-116 colon and with KM12 colon was more than 100 µM throughout. Moreover, the TGI in the assay with SK-MEL-5 melanoma, in the assay with CCRF-CEM leukemia and in the assay on RXF 393 renal was more than 100 µM throughout.
Regarding `O=C1NN=C(c2ccc([N+](=O)[O-])cc2)C1n1nc(-c2ccccc2)c2ccccc2c1=O` (stereo not drawn), the TGI with RPMI-8226 leukemia is more than 70 µM; in the assay with NCI-H226 lung, more than 100 µM; in the assay with MALME-3M melanoma, more than 100 µM; in the assay with UACC-62 melanoma it was more than 100 µM; in the assay on HCT-116 colon, more than 100 µM; in the assay on KM12 colon, more than 100 µM. Also, the TGI with SK-MEL-5 melanoma, in the assay on CCRF-CEM leukemia and in the assay on RXF 393 renal was more than 100 µM each time.
As for `COc1cc2c(Cc3cc(OCc4ccccc4)ccc3N)nccc2c(OC)c1OC`, the TGI in the assay with RPMI-8226 leukemia, in the assay with NCI-H226 lung, with MALME-3M melanoma, in the assay with UACC-62 melanoma, in the assay with HCT-116 colon and in the assay with KM12 colon was more than 10 µM each time. For the same molecule, the TGI in the assay on SK-MEL-5 melanoma, in the assay on CCRF-CEM leukemia and with RXF 393 renal was more than 10 µM in each case.
In the case of `COC(=O)c1nc(N)nc(C(=O)OC)c1C(=O)c1ccccc1`, the TGI in the assay with RPMI-8226 leukemia, with MALME-3M melanoma, in the assay with UACC-62 melanoma, with HCT-116 colon, in the assay on KM12 colon and in the assay with SK-MEL-5 melanoma was more than 100 µM each time. Besides, the concentration for total growth inhibition (TGI) in the assay on CCRF-CEM leukemia and in the assay with RXF 393 renal was more than 100 µM throughout.
